Laboratory results taken from US20190167647A1, “PHARMACEUTICAL COMPOSITION FOR STROKE TREATMENT BASED ON AMPK INHIBITION” (INDUSTRY ACADEMY COOPERATION FOUNDATION OF SEJONG UNIVERSITY, priority 2016, published 2019).

Assays:
neuronal cells = assay: H2O2 neurotoxicity with chelators (LDH secretion); assay type: cell-based
Protocol: There is reported that intracellular free zinc is increased in a neurotoxicity mechanism due to hydrogen peroxide, wherein hydrogen peroxide toxicity is reduced when the cells are treated using the zinc chelator. […] Therefore, in order to monitor whether effects of the drug #28 are associated with a reduction of zinc in the above case, the neuronal cells were treated with hydrogen peroxide (H2O2), a zinc chelator such as TPEN or CaEDTA and a calcium chelator such as ZnEDTA, followed by monitoring neurotoxicity (LDH secretion).

[1] = test system: cultured cerebral cortex neurons of a mouse; assay: H2O2-induced neurotoxicity, propidium iodide staining; assay type: cell-based; conditions: H2O2 100 μM 4.5 hours; 10 μM drug; excepted drugs = no significant inhibition
Protocol: More particularly, the neurotoxicity model for observation of neurotoxicity inhibitory effects includes excitotoxicity, oxidative damage, etc. which are classified as a cause mechanism of stroke. NMDA (N-methyl-D-aspartate) was used as the excitotoxicity model while the oxidative model used herein was a hydrogen peroxide (H2O2) toxicity model. First, using NMDA (50 μM) or H2O2 (100 μM), the cultured cerebral cortex neurons of a mouse were treated for 1.5 hours and 4.5 hours, respectively, resulting in induction of neurotoxicity. The neurons were further treated with the selected 12 drugs (10 μM) as well as the existing selected drug #28 (20 μM). Then, after staining the neurons with propidium iodide (PI), the stained cells were quantified to determine a degree of cell death.

mouse = conditions: administered to a mouse; cited from earlier work
[2] = target: T1, recombinant AMPK (α2/β1/γ1) (Homo sapiens, UniProt P54646); assay: AMPK enzymatic activity assay (CycLex kit); assay type: biochemical; conditions: 10 μM
T1 construct: purchased CycLex, Japan
Protocol: More particularly, AMPK enzymatic activity was measured by an AMPK activity assay kit (CycLex, Japan) and recombinant AMPK (α2/β1/γ1 CycLex, Japan).

cerebral cortex neurons = assay: Western blot of Bim and caspase-3 after zinc treatment; assay type: cell-based, mouse; conditions: 300 μM ZnCl2, 20 μM compound
Protocol: More particularly, the cerebral cortex neurons were treated with 300 μM zinc (ZnCl2) for 2, 3, 4, 5 and 6 hours to induce zinc toxicity. From each sample, protein was separated and subjected to Western blot and treatment using 20 μM compound C (+Cpd C) as an AMPK inhibitor, so as to identify a relationship between the zinc toxicity and apoptosis.

[3] = test system: cultured cerebral cortex neurons; assay: Zinc neurotoxicity, TUNEL staining and LDH assay; assay type: cell-based, mouse; conditions: 300 μM ZnCl2 10 min, 10 hours later; 20 μM compound
Protocol: Cerebral cortex neurons of a mouse used in the present invention were extracted from the mouse embryos brain and cultured, followed by further culturing the same using a Dulbecco's modified Eagle's medium (DMEM, Gibco, Grand Island, N.Y., US) containing 5% fetal bovine serum (FBS) and 5% horse serum (HS) under conditions of 95% humidity, 5% CO2 and 37° C. temperature. For activation and differentiation of the above cells, these cells were proliferated at a density of 2×10^4 cells in 24-well tissue culture plate. Further, prior to treatment using zinc and the compounds, the cells were incubated in MEM medium without FBS and HS.
More particularly, the cultured cerebral cortex neurons according to the embodiment of the present invention were treated with 300 μM zinc (ZnCl2) for 10 minutes then removed. 10 hours later, cytotoxicity was observed by TUNEL staining or LDH (Lactate Dehydrogenase). Further, these cells were treated with AMPK inhibitor, that is, 20 μM compound C (+Cpd C, Tocris), followed by observation whether neurotoxicity is reduced or not.

[4] = Calcium chelation with Fura-2 dye (test tube); assay type: physicochemical; conditions: Fura-2 dye, test tube
Protocol: In order to determine whether the above result is obtained by the chelation of Ca^2+ ions other than the drug #28, protective effects of the drug #28 (10 to 60 μM) after treatment using ionomycin, which is a calcium ion permeable carrier (‘calcium ionophore’) directly increasing the intracellular calcium concentration, were under observation. Further, using a Fura-2 dye that is combined with calcium to represent fluorescence, it was monitored whether the drug #28 is combined with calcium on a test tube and represents chelating effects.

[5] = test system: cultured cerebral cortex neurons of a mouse; assay: Zinc ion permeable carrier test, ZinPyr-1; assay type: cell-based; conditions: #28 0.05 μM, clioquinol 0.5 μM
Protocol: ZinPyr-1 is a fluorescent dye which has a lower Kd value than that of FluoZin-3 and is used to measure a change in a zinc concentration even at a lower concentration. Whether the drug #28 of the present invention can act as an ion permeable carrier was under observation using ZinPyr-1. More particularly, the cultured cerebral cortex neurons of a mouse were treated with ZinPyr-1 then treated with the drug #28 (0.05 μM) and clioquinol (0.5 μM) in a typically used neuronal cell culture medium, so as to determine a change in zinc ion concentrations in the neurons. Also, a non-treatment group was used as a control group.
Therefore, after adding a further 0.5 μM concentration of zinc to the cell culture medium, a change in zinc concentration in the cells was under observation.

mouse cortical cultures [6] = assay: TPEN-induced caspase-3 activity; assay type: cell-based
Description: (§1) Generally, application of TPEN as a zinc chelator easily flowing into the cells causes a cell death in the form of typical apoptosis (EDTA is not introduced into the cells). When adding zinc to the above treatment, intracellular free zinc ions are retained thus to reduce neuronal death and further reduce caspase-3 protease activity in the apoptosis process. Under expectation such that: the drug #28 and clioquinol may not only serve as a chelator but also play a role of an ion permeable carrier; these drugs flow into cells as combined with zinc; thereafter, the zinc is removed from the drug because a concentration of free zinc in the cytoplasm is too low; therefore, the concentration of free zinc in the cytoplasm is increased thus to reduce neurotoxicity due to TPEN, caspase-3 activity and neurotoxicity (LDH secretion) were under observation after treatment using zinc, the drug #28 and clioquinol.

mouse cortical cultures [7] = assay: TPEN-induced neurotoxicity (LDH secretion); assay type: cell-based
Description: as §1

[8] = Free zinc concentration by fluorescent dye (Newport green DCF, FluoZin-3); assay type: physicochemical; conditions: 20 μM; Newport green DCF or FluoZin-3
Protocol: Further, in conjunction with clioquinol (20 μM) or the drug #28 (20 μM), a zinc fluorescent dye, i.e., Newport green DCF (0.5 μM, Kd(Zn)=1 uM) or FluoZin-3 (0.5 μM, Kd(Zn)=15 nM) was used for measurement of free zinc concentration.

T1 sequence (P54646 whole entry): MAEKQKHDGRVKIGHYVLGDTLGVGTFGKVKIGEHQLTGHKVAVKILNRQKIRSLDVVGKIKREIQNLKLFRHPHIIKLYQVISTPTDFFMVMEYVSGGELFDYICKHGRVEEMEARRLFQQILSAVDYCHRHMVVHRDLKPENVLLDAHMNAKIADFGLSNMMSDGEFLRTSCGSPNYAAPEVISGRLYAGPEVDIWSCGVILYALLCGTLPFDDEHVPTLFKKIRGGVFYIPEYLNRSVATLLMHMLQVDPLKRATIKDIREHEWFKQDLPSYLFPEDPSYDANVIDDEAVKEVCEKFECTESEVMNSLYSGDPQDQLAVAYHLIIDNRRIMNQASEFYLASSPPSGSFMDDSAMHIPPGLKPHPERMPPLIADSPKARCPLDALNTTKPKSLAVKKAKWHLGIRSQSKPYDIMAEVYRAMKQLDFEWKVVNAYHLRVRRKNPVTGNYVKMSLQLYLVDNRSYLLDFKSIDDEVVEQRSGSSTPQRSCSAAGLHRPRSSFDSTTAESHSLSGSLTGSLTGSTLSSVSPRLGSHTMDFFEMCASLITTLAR
T1 sequence (Q9Y478 whole entry partner): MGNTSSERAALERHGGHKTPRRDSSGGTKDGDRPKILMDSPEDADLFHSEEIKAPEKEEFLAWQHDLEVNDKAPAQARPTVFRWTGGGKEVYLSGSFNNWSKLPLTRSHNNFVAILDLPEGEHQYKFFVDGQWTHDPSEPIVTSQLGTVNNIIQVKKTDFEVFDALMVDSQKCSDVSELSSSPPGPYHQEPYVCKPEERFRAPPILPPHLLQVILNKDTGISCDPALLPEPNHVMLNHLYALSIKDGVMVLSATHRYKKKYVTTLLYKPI
T1 sequence (P54619 whole entry partner): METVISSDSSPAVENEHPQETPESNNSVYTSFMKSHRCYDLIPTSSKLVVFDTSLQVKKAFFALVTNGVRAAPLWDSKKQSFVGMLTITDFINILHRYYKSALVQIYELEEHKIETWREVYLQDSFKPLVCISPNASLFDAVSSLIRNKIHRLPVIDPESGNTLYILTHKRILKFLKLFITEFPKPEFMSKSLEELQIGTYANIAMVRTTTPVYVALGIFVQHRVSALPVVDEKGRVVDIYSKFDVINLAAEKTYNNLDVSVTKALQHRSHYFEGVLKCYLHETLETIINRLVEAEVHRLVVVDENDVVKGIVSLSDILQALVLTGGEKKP

With `O=C([O-])CN(CCN(CC(=O)[O-])CC(=O)[O-])CC(=O)[O-].[Ca+2].[Na+].[Na+]` [CaEDTA] the “neurotoxicity caused by hydrogen peroxide” value (“neurotoxicity caused” for short) (neuronal cells) was “significantly reduced toxicity”.

With `Cc1ccccc1NC1=NC(=O)/C(=C/c2c[nH]c3ccccc23)S1` [Compound 4B03, (5Z)-5-(1H-Indol-3-ylmethylene)-2-[(2-methylphenyl)amino]-1,3-thiazol-4(5H)-one] the “inhibition of H2O2-induced neurotoxicity” value [1] was “other than two drugs”.

In the case of `Cc1cccc(NC2=NC(=O)/C(=C/c3c[nH]c4ccccc34)S2)c1C` [Compound 4B04, (5Z)-2-[(2,3-Dimethylphenyl)amino]-5-(1H-indol-3-ylmethylene)-1,3-thiazol-4(5H)-one], the “inhibition of H2O2-induced neurotoxicity” value [1] is reported as “other than two drugs”.

In the case of `C=C1C(=O)OC(CCCCCCCC)C1C(=O)O` (stereo not drawn) [Compound C75], the “size of infarcted part” value (mouse) is given as “significantly reduces a size of an infracted part”.

In the case of `c1cc(-c2cnn3cc(-c4ccc(OCCN5CCCCC5)cc4)cnc23)ccn1` [Compound C], the “size of infarcted part” value (mouse) is listed as “significantly reduces a size of an infracted part”, the “Mean (% remaining activity)” value [2] is listed as 5.3000% and the “increase in Bim caused by zinc toxicity” value (cerebral cortex neurons) is listed as “reduce”. For the same compound, the “increase in caspase-3 activity caused by zinc toxicity” value (cerebral cortex neurons) was “reduce” and the “zinc neurotoxicity (TUNEL staining and LDH assay)” value [3] was “significantly reduced”.

For `O=C(O)CN(CCN(CC(=O)O)CC(=O)O)CC(=O)O` [EDTA, reference compound], the “chelating effects for calcium” value [4] was “good chelating effects at a low calcium concentration”.

In the case of `c1ccc(CN(CCN(Cc2ccccn2)Cc2ccccn2)Cc2ccccn2)nc1` [TPEN, N,N,N′,N′-tetrakis (2-pyridylmethyl) ethylenediamine], the “neurotoxicity caused” value (neuronal cells) is reported as “reduced neurotoxicity caused by hydrogen peroxide”.

In the case of `O=C([O-])CN(CCN(CC(=O)O)CC(=O)O)CC(=O)[O-].[Zn+2]` [ZnEDTA], the “neurotoxicity caused” value (neuronal cells) is reported as “did not inhibit toxicity”.

In the case of `Oc1c(I)cc(Cl)c2cccnc12` [clioquinol, reference compound], the “increase of zinc in neurons, general culture conditions” value [5] is reported as “an increase of zinc by clioquinol was observed”, the “caspase-3 activity induced by TPEN” value (mouse cortical cultures [6]) is reported as “significantly reduce caspase-3 activity induced by TPEN” and the “neurotoxicity by TPEN” value (mouse cortical cultures [7]) is reported as “decrease neurotoxicity by TPEN”. For the same compound, the free zinc ions [8] was “reduce free zinc ions”.

In the case of `[Cl-].[Cl-].[Zn+2]` [zinc], the “caspase-3 activity induced by TPEN” value (mouse cortical cultures [6]) is reported as “significantly reduce caspase-3 activity induced by TPEN” and the “neurotoxicity by TPEN” value (mouse cortical cultures [7]) is reported as “decrease neurotoxicity by TPEN”.
